Experimental data reported in paper PMC11921344, “Antimicrobial peptide DiPGLa-H exhibits the most outstanding anti-infective activity among the PGLa variants based on a systematic comparison” (Applied and Environmental Microbiology, 2025).
Where no end group is shown, it is not given here.

How the values were obtained:
E. coli K88 [1] = experiment: LPS binding assay (MIC with exogenous LPS); assay type: cell-based, Escherichia coli; conditions: increasing addition of external LPS, 37°C 24 h, 492 nm
Method: LPS (Sigma, USA) and LTA (Sigma, USA) were dissolved in water at a concentration of 5 mg/mL. Fifty microliters of DiPGLa-H with a concentration gradient of 1–64 μM and 50 µL of LPS or LTA master mix with different concentration gradients were added to the 96-well plate in 2-fold dilution, and finally, 100 µL of diluted E. coli K88 or S. aureus Mu50 was added, incubated at 37°C in a constant temperature incubator for 24 h. The MIC was determined by absorbance at 492 nm using an enzyme marker as the lowest peptide concentration that inhibited 95% of the bacterial growth.

E. coli K88 biofilm = experiment: Anti-biofilm assay (crystal violet); assay type: cell-based, Escherichia coli
Method: The anti-biofilm activity of DiPGLa-H was evaluated using a crystal violet staining method. Briefly, 100 µL of bacterial suspension at 1 × 10^6 CFU/mL was incubated with DiPGLa-H (0–64 µM) for 48 h. The biofilm formed was stained with 1% crystal violet, and the absorbance was measured at 595 nm. The biofilm formation and mature biofilm removal assays were conducted. For biofilm formation, a bacterial suspension was incubated with DiPGLa-H, and biofilm content was quantified. To assess mature biofilm removal, pre-formed biofilms were treated with DiPGLa-H for 24 h, followed by quantification. Detailed Protocol in Supplementary Materials.
To test the ability of DiPGLa-H to […] on the test bacteria, a single colony was inoculated in MHB medium and incubated overnight at 37 °C and 180 r/min, and 1% of the bacterial suspension was taken and continued to be amplified and incubated for 2 h. […] The biofilm content was analyzed by measuring the absorbance value at 595 nm, and anhydrous ethanol was used as a blank control. […]

S. aureus Mu50 = experiment: ROS generation (DCFH-DA); assay type: cell-based, Staphylococcus aureus MRSA; conditions: 8 µM DiPGLa-H, 1 h 37°C, DCFH-DA 10 µM
Method: (§1) 2′,7′-Dichlorofluorescin diacetate (DCFH-DA) was used to determine the intracellular production of ROS as previously described. S. aureus Mu50 and E. coli K88 cells were diluted until OD600 = 0.4 and incubated in different concentrations of peptide at 37°C for 1 h. Next, the mixed solution was incubated with 10 µM DCFH-DA at 37°C for 1 h. The fluorescence (excitation wavelength = 488 nm, emission wavelength = 525 nm) was monitored with an Infinite 200 pro fluorescence spectrophotometer (Tecan, China). Each test was measured in triplicate and tested twice.

Gram-negative bacteria = experiment: Geometric mean MIC and therapeutic index, Gram-negative; assay type: cell-based; conditions: geometric mean of the peptide MICs against Gram-negative strains
Method: The antibacterial activity was evaluated using a standard MIC and MBC assay according to the National Committee for Clinical Laboratory Standards (NCCLS). MIC, MBC assay, and time-kill curves for the optimal peptide are provided in the Supplementary Materials.
Antimicrobial Activity Assays. The antibacterial activity of the peptides was determined using a method designed from the National Committee for Clinical Laboratory Standards (NCCLS) in the United States. All the strains used in the experiment are preserved in the laboratory. Briefly, log phase bacterial cells were diluted in MHB to a final concentration of 0.5-1x10^5 CFU/mL. Subsequently, 50μL of different concentrations of polypeptides were incubated with 50 μL of bacterial solution in sterile 96-well plates. In the minimum inhibitory concentration (MIC) assay, the plate was incubated at 37°C for 24 h, and the minimum inhibitory concentration (MIC) was determined by the absorbance at 492 nm of the microplate reader, and the minimum inhibitory concentration (MIC) inhibited 95% of bacteria grow. Determination of minimum bactericidal concentration: the plate was incubated at 37°C for 4 hours, 50 μL of the mixture was taken out of each well, diluted with an appropriate amount of PBS, smeared on the agar plate, and cultured overnight. Colonies were counted and the initial CFU/well was retrospectively calculated the following day. The lowest concentration of peptide that kills 99.9% of bacterial cells is the minimum bactericidal concentration (µM), Each test was replicated at least 3 times.

E. coli = conditions: one range printed for E. coli and S. aureus; cited from earlier work
Method: (§2) PGLa, an amphibian 21-residue cationic AMP, with a net charge of +4, was found in the skin of the toad Xenopus laevis ([6]). The minimum inhibitory concentration (MIC) of PGLa against Escherichia coli 25922 and S. aureus 25923 were 10–50 μg/mL and 50–100 μg/mL, respectively ([6]). […] The rep ...

S. aureus = conditions: one range printed for E. coli and S. aureus; cited from earlier work
Method: as §2

E. coli K88 [2] = experiment: ROS generation (DCFH-DA); assay type: cell-based, Escherichia coli; conditions: 8 µM DiPGLa-H, 1 h 37°C, DCFH-DA 10 µM
Method: as §1

KIAKVALKALKIAKVALKAL-NH2 (C-terminus assumed) [DiPGLa-H]
reduction of antibacterial activity by external LPS (E. coli K88 [1]): 16 fold
concentration for effective inhibition of biofilm formation (E. coli K88 biofilm; 1×10^6 CFU/mL, DiPGLa-H 0-64 µM, 48 h, crystal violet, 595 nm): above 4 µM
concentration effectively eradicating biofilms (E. coli K88 biofilm; pre-formed biofilm treated with DiPGLa-H 0-64 µM for 24 h): above 16 µM
elevation of ROS production vs untreated (S. aureus Mu50): 4.6 fold
GMMIC Gram-negative (Gram-negative bacteria): 2.82 µM
MIC E. coli (E. coli): 0.75 to 1.5 µM
MIC S. aureus (S. aureus): 0.75 to 1.5 µM
elevation of ROS production vs untreated (E. coli K88 [2]): 11.3 fold
fold higher TIall vs kiadin-2: 2.5 fold
